Where “and” joins values, the source holds several entries; their conditions need not be identical. Identical values can stand only once.
Tested on: Male Sprague Dawley rats
Assay: Novelty Suppressed Feeding Test (NSFT) with home cage feeding control
Assay type: in vivo, rat
Experimental: Behavioral Analysis Using the Novelty Suppressed Feeding Test (NSFT): The NSFT was conducted as previously described (Warner-Schmidt, J. L. & Duman, R. S. PNAS 104(11): 4647-52 (2007)). Rats were fasted in their home cages for 20 hr and then placed in a Plexiglas open field (76.5 cm×76.5 cm×40 cm) with a small amount of food in the center. Animals were allowed to explore the open field for 8 min and the latency to feed (s) was recorded.
Chronic Unpredictable Stress (CUS) Conditions: Rats were exposed to a variable sequence of 12 unpredictable stressors, preventing habituation as described (Li, N. et al., Biol Psychiatry 69(8): 754-61 (2011)). The following twelve stressors were applied (2 per day, for 25 days): cage rotation, light on, light off, cold stress, isolation, swim stress, food and water deprivation, wet bedding, stroboscope, cage tilt, odor exposure and group housing. The animals in non-stressed (NS) groups were housed normally without the application of external stressors. Both NS and CUS rats were handled and weighed weekly.
Study Design. Thirty-two (32) male Sprague Dawley Male rats weighing between 175 and 200 g were randomized into 4 study groups (n=8/treatment group), following a 5-day acclimation period. On study day 0, rats received a single dose of either saline (Sal) or ketamine (Ket) in Groups 1 and 2, respectively, by intraperitoneal injection (i.p.). The rats in Group 3 and 4 received a single dose of the NV-5138 vehicle (Veh, 0.5% Methylcellulose/0.1% Tween-80) or NV-5138 (160 mg/kg), respectively, by oral gavage. All rats were subjected to the FUST on day 1, 24 hrs after dosing. On day 2, 48 hrs after dosing, the LMA of all rats was measured in an open field. Rats were then fasted for 20 hrs and subjected to the NSFT, 72 hrs post-dose.
Study Design: Fifty-six (56) male rats weighing between 175 and 200 g were randomized into 4 study groups (n=14/group), following a 5-day acclimation period. On study day minus 20, two groups of rats were subjected to CUS for 25 days and two groups of rats were housed normally serving as the NS group. On the day 21 of the CUS protocol, rats received a single dose of either Veh or NV-5138 (160 mg/kg) by oral gavage (day 0). The SPT and NSFT were performed 24 and 48 hrs post-administration (days 1 and 2), respectively. Upon completion of the behavioral tests, after 25 days of the CUS protocol a second dose of NV-5138 or Veh was administered on day 5 and rats were sacrificed 24 hrs later by conscious decapitation. Crude synaptosomes were prepared from the PFC and the synaptic proteins, GluR1 and PSD95 were quantitated by WB.
Study Design. Twenty (20) male rats weighing between 175 and 200 g were randomized into 3 study groups (n=6-7/group), following a 5-day acclimation period. All rats were surgically implanted with bilateral IT cannulas in the PFC 2 weeks prior to dosing. […] Thirty minutes following the intrathecal infusions, either NV-5138 vehicle (Veh-NV, 0.5% methylcellulose/0.1% Tween-80) or NV-5138 (160 mg/kg) was administered by oral gavage. Each treatment group was assessed at the designated time following oral dosing in FST 24 hrs (day 1) LMA 48 hrs (day 2) and the NSFT 72 hrs (day 3 following a 20 hr period of fasting). LMA was measured to rule out overall changes in generally locomotor activity. The study design is presented in Table 11 with timeline of surgical procedures, test article administration and behavioral tests is provided in FIG. 20
Study Design. Forty-eight (48) male rats weighing between 175 and 200 g were randomized into 6 study groups (n=8/group), following a 5-day acclimation period. A single dose of all test articles was administered on day 0 and the behavioral tests were performed 3, 7 and 10 days later. Groups 1 and 2 were dosed on day 0 with NV-5138 (160 mg/kg by oral gavage) and Ket (10 mg/kg by i.p. injection), respectively and subjected to a FST on day 3. […]

Row | SMILES | decrease in the latency to feed (NSFT) vs Sal (Example A, Ket 10 mg/kg i.p. single dose, 72 hrs post-dose, p<0.01) | NSFT vs Sal (Example G, Ket 10 mg/kg i.p. single dose, 10 days post-dose) | decrease in the latency to feed (NSFT) vs Veh (Example A, NV-5138 160 mg/kg oral single dose, 72 hrs post-dose, p<0.01) | NSFT latency to feed (Example E, CUS rats, NV-5138 160 mg/kg oral, 48 hrs after treatment, p<0.0001 vs CUS Veh) | NSFT latency to feed (Example E, non-stressed (NS) rats, NV-5138 160 mg/kg oral, 48 hrs after treatment, p<0.01 vs Veh) | NSFT latency to feed (Example F, Veh-R IT infusion then NV-5138 160 mg/kg oral, 72 hrs) | decrease in NSFT latency to feed vs Veh-R/Veh-NV (Example F, Veh-R IT infusion then NV-5138 160 mg/kg oral, 72 hrs, p<0.05, 160 mg/kg) | NSFT latency to feed, R/NV-5138 vs Veh-R/Veh-NV (Example F, rapamycin (R, 0.01 nmol) IT infusion into PFC 30 min before NV-5138 160 mg/kg oral, 72 hrs) | NSFT vs Veh (Example G, NV-5138 160 mg/kg oral single dose, 10 days post-dose) | NSFT (Example I, NV-5138 80 mg/kg oral daily for 7 days, day 9, 72 hrs post-last dose)
1 | CNC1(c2ccccc2Cl)CCCCC1=O (stereo not shown) [Ket, ketamine, reference compound] | 31% | No significant difference |  |  |  |  |  |  |  | 
2 | CC(C)(C[C@H](N)C(=O)O)C(F)F [NV-5138] |  |  | 36% | 520.1 ± 40.35 s | 430.6 ± 25.3 s | 510 ± 50 s | 46% and 32% | lack of significant effect on latency to feed | No significant difference | Significant effects

Reference: US20210228523A1, “MODULATORS OF SESTRIN-GATOR2 INTERACTION AND USES THEREOF” (Navitor Pharmaceuticals, Inc., priority 2017, published 2021)
